Measured values taken from US20240092835A1, “NOVEL PEPTIDES CAPABLE OF ALTERING NK CELL ACTIVITY” (Massachusetts Institute of Technology, priority 2022, published 2024).

Key:
[1] = test system: NKG2A−/NKG2C+ NK cells; test: NK cell activation markers in NKG2A-/NKG2C+ NK cells incubated with peptide and K562 expressing HLA-E (activation); format: cell-based, human; conditions: for effect on NKG2A−/NKG2C+ NK cell activation (in words): K562 expressing HLA-E, CD107a, IFNG, TNF, CCL3; for percentage of CCL3+ NK cells / percentage of CD107+ NK cells / percentage of IFNG+ NK cells / percentage of TNF+ NK cells: NKG2A-/NKG2C+ NK cells, K562/HLA-E
Procedure, shortened: (§1)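 K562 + HLA-E, pulsed with human/CMV proteome peptides → incubated with sorted NK subsets → surface marker staining, % positive cells. Increase = activation; decrease = inhibition.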

[2] = test system: NKG2A+/NKG2C− NK cells; test: NK cell activation markers in NKG2A+/NKG2C- NK cells incubated with peptide and K562 expressing HLA-E (inhibition); format: cell-based, human; conditions: for percentage of CCL3+ NK cells / percentage of CD107a+ NK cells / percentage of IFNG+ NK cells / percentage of TNF+ NK cells: NKG2A+/NKG2C- NK cells, K562/HLA-E
Procedure, shortened: as §1

[3] = target: T1, HLA-E (Homo sapiens, UniProt P13747); test: HLA-E surface stabilization assay with RMA-S/HLA-E cells; format: cell-based; conditions: 30 μM peptide, 16 hours, anti-HLA-E antibody
T1 construct: expressed in transfected cells; host or cells: RMA-S/HLA-E cells (antigen processing-defective lymphoma cell line)
Protocol: HLA-E surface expression was assessed by measuring geometric mean fluorescence intensity (GeoMFI) in RMA-S cells following immunofluorescence staining with an anti-HLA-E antibody (Table 14). Increased GeoMFI was indicative of increased HLA-E surface expression stability following novel peptide exposures (FIG. 3).

[4] = test system: NKG2A−/NKG2C− NK cells; test: NK cell activation markers in control NKG2A-/NKG2C- NK cells incubated with peptide and K562 expressing HLA-E; format: cell-based, human
Procedure, shortened: as §1

HLA-E surface expression stability (GeoMFI) ([3]; Trial 1): 3783 GeoMFI
HLA-E surface expression stability (GeoMFI) ([3]; Trial 2): 4068 GeoMFI
HLA-E surface expression stability (GeoMFI) ([3]; Trial 3): 4205 GeoMFI
HLA-E surface expression stability (GeoMFI) ([3]; Trial 4): 4760 GeoMFI
Sequence: VMPPRTLLL [human15, peptide HLA-A 3-11 derived from the human proteome]
effect on NKG2A−/NKG2C+ NK cell activation (in words) ([1]; listed as SEQ ID NO. 14): strong activating effects
effect on NKG2A−/NKG2C+ NK cell activation (in words) ([1]; listed as h15): strong inhibitory and activating effects
percentage of CCL3+ NK cells ([1]; Trial 1): 79.5%
percentage of CD107+ NK cells ([1]; Trial 1): 78.4%
percentage of IFNG+ NK cells ([1]; Trial 1): 66.7%
percentage of TNF+ NK cells ([1]; Trial 1): 52.1%
percentage of CCL3+ NK cells ([1]; Trial 2): 89.7%
percentage of CD107+ NK cells ([1]; Trial 2): 86%
percentage of IFNG+ NK cells ([1]; Trial 2): 79.9%
percentage of TNF+ NK cells ([1]; Trial 2): 71.8%
percentage of CCL3+ NK cells ([1]; Trial 3): 86.8%
percentage of CD107+ NK cells ([1]; Trial 3): 88.2%
percentage of IFNG+ NK cells ([1]; Trial 3): 78.8%
percentage of TNF+ NK cells ([1]; Trial 3): 68.2%
percentage of CCL3+ NK cells ([1]; Trial 4): 69%
percentage of CD107+ NK cells ([1]; Trial 4): 68.9%
percentage of IFNG+ NK cells ([1]; Trial 4): 60.9%
percentage of TNF+ NK cells ([1]; Trial 4): 52.6%
percentage of CCL3+ NK cells ([1]; Trial 5): 78.9%
percentage of CD107+ NK cells ([1]; Trial 5): 78%
percentage of IFNG+ NK cells ([1]; Trial 5): 71.9%
percentage of TNF+ NK cells ([1]; Trial 5): 66.6%
percentage of CCL3+ NK cells ([1]; Trial 6): 58.4%
percentage of CD107+ NK cells ([1]; Trial 6): 56.2%
percentage of IFNG+ NK cells ([1]; Trial 6): 44.1%
percentage of TNF+ NK cells ([1]; Trial 6): 36.3%
effect on NKG2A+/NKG2C− NK cell inhibition (in words) ([2]; K562 expressing HLA-E, CD107a, IFNG, TNF, CCL3): strong inhibitory
percentage of CCL3+ NK cells ([2]; Trial 1): 1.79%
percentage of CD107a+ NK cells ([2]; Trial 1): 0.49%
percentage of IFNG+ NK cells ([2]; Trial 1): 0.05%
percentage of TNF+ NK cells ([2]; Trial 1): 0.01%
percentage of CCL3+ NK cells ([2]; Trial 2): 1.6%
percentage of CD107a+ NK cells ([2]; Trial 2): 0.79%
percentage of IFNG+ NK cells ([2]; Trial 2): 0.3%
percentage of TNF+ NK cells ([2]; Trial 2): 0.27%
percentage of CCL3+ NK cells ([2]; Trial 3): 1.12%
percentage of CD107a+ NK cells ([2]; Trial 3): 0.73%
percentage of IFNG+ NK cells ([2]; Trial 3): 0.44%
percentage of TNF+ NK cells ([2]; Trial 3): 0.19%
percentage of CCL3+ NK cells ([2]; Trial 4): 0.75%
percentage of CD107a+ NK cells ([2]; Trial 4): 0.75%
percentage of IFNG+ NK cells ([2]; Trial 4): 0.2%
percentage of TNF+ NK cells ([2]; Trial 4): 0.18%
percentage of CCL3+ NK cells ([2]; Trial 5): 3.7%
percentage of CD107a+ NK cells ([2]; Trial 5): 1.04%
percentage of IFNG+ NK cells ([2]; Trial 5): 0.19%
percentage of TNF+ NK cells ([2]; Trial 5): 0.16%
percentage of CCL3+ NK cells ([2]; Trial 6): 2.09%
percentage of CD107a+ NK cells ([2]; Trial 6): 0.52%
percentage of IFNG+ NK cells ([2]; Trial 6): 0.24%
percentage of TNF+ NK cells ([2]; Trial 6): 0.05%
percentage CCL3+ NK cells ([4]; Trial 1): 34%
percentage CD107+ NK cells ([4]; Trial 1): 25.7%
percentage TNF+ NK cells ([4]; Trial 1): 3.42%
percentage of IFNG+ NK cells ([4]; Trial 1): 15.5%
percentage CCL3+ NK cells ([4]; Trial 2): 55.5%
percentage CD107+ NK cells ([4]; Trial 2): 34.1%
percentage TNF+ NK cells ([4]; Trial 2): 9.68%
percentage of IFNG+ NK cells ([4]; Trial 2): 25.4%
percentage CCL3+ NK cells ([4]; Trial 3): 46.7%
percentage CD107+ NK cells ([4]; Trial 3): 43.7%
percentage TNF+ NK cells ([4]; Trial 3): 14.8%
percentage of IFNG+ NK cells ([4]; Trial 3): 34.7%
percentage CCL3+ NK cells ([4]; Trial 4): 34.3%
percentage CD107+ NK cells ([4]; Trial 4): 29.6%
percentage TNF+ NK cells ([4]; Trial 4): 10.3%
percentage of IFNG+ NK cells ([4]; Trial 4): 20.3%
percentage CCL3+ NK cells ([4]; Trial 5): 24.7%
percentage CD107+ NK cells ([4]; Trial 5): 18.9%
percentage TNF+ NK cells ([4]; Trial 5): 6.97%
percentage of IFNG+ NK cells ([4]; Trial 5): 14.7%
percentage CCL3+ NK cells ([4]; Trial 6): 26.4%
percentage CD107+ NK cells ([4]; Trial 6): 21.1%
percentage TNF+ NK cells ([4]; Trial 6): 5.43%
percentage of IFNG+ NK cells ([4]; Trial 6): 11.9%
